The values that follow come from publication PMC9351465, “Mechanism-based heparanase inhibitors reduce cancer metastasis in vivo” (Proceedings of the National Academy of Sciences of the …, 2022).

Structures are written as SMILES.

Experiment [1] deals with T1, endogenous cellular HPSE (U87 glioma cells) (Homo sapiens, UniProt Q9Y251).
T1 construct: endogenous in cells; host or cells: U87 glioma cells
T1 sequence (Q9Y251 158-543 limits assumed): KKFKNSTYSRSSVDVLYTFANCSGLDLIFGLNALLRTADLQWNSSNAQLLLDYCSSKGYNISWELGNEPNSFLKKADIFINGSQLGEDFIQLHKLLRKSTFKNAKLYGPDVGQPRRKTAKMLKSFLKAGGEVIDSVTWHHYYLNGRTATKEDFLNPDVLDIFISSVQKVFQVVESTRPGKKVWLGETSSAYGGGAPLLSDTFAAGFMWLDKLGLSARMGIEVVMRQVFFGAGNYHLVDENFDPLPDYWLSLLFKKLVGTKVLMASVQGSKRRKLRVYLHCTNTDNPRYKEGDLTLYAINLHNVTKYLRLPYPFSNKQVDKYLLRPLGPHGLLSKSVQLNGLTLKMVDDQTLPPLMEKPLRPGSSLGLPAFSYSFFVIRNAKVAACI
T1 sequence (Q9Y251 36-109 limits assumed): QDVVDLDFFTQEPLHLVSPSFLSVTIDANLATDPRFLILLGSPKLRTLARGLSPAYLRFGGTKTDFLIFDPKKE
In words: H35SPG digest by U87 glioma cell lysates, inhibitor before or after lysis. The settings on record: inhibitor applied before or after lysis, 18 h digest. Format: cell-based. The source says:
Finally, we assessed our inhibitors against HPSE-mediated degradation of bona fide HSPGs in an ECM environment. Cultured bovine corneal endothelial cells secrete a subendothelial basement membrane material rich in proteoglycans, which can be radiolabeled by growth in the presence of ^35SO4^2− ([50]). Solubilized H^35S chains released from H^35SPGs by HPSE digestion can be resolved chromatographically, with HPSE inhibition leading to a corresponding loss of signal. […] We also tested inhibition of endogenous cellular HPSE using this assay format.
Figure S7 Radiolabelled H35SPG basement membrane digests by HPSE expressing U87 cell […]
(1 picture or pasted object on this page, not shown here)
For HS-degradation assays, ECM coated dishes were incubated with 200 ng recombinant HPSE in 1 mL reaction mixture (10 mM buffer Phosphate-Citrate pH 6.0, 50 mM NaCl, 1 mM DTT, 1 mM CaCl2) containing HPSE inhibitors or DMSO control. […] The Sepharose 6B column was eluted with PBS, and 35S radioactivity of 0.2 mL fractions quantitated using a liquid scintillation analyzer (Packard BioScience) (11). […]
Cells in the upper chamber were separated by Matrigel from a lower chamber containing 600 µL DMEM, supplemented with 10% FBS. […] 10 randomly selected microscopic fields were recorded, and cell invasion calculated using ImageJ, by quantitating the percentage of the field stained by crystal violet. […]

The subject of experiment [2] is 4T1 breast cancer cells. The experiment can be described thus: 4T1 murine mammary carcinoma lung metastasis model (luciferase imaging). The format is in vivo, mouse. The following applies: Balb/c mice, i.p. 300 nmol 2 or 150 μg SST0001, then i.v. 4T1-Luc cells with 2 nmol 2 or 10 μg SST0001; 14 d. The procedure: Since HPSE drives metastasis in multiple cancer types, we tested 2 against another metastasis model—4T1 murine mammary carcinoma, which also migrates to the lungs. Here, we were aided by a constitutive luciferase expressing 4T1 line, enabling real-time tracking of cancer growth by chemiluminescent imaging. Similar to the B16 model, mice were dosed i.p. with 300 nmol of 2 or 150 μg SST0001, followed by i.v. injection of 4T1-Luc cells alongside 2 nmol 2 or 10 μg SST0001.
B16-BL6 melanoma cells/mouse in a volume of 100 µL, alongside 20 µM 2 or 10 µg SST0001.
Mice were sacrificed after 14 days and the lungs were dissected, photographed and evaluated for the number of metastatic foci/lung. Plots and statistical analyses were carried out in Prism […]
(§1) Bioluminescence imaging of lung metastases produced by luciferase-expressing 4T1 cells was carried out using a highly sensitive, cooled charge-coupled device camera assembled in a specimen box (IVIS; Xenogen Corp, Hopkinton, MA). […] The tumor burden was quantified using Living Image software (Xenogen) (12, 13). […]
(§2) CAG myeloma - Luciferase-labeled CAG human myeloma cells (3x106) were injected into the tail vein of NOD/SCID mice. […] Tumor burden was quantified using Living Image software. […]

Experiment [3] has as its system CAG myeloma cancer cells. In words: CAG myeloma xenograft bone metastasis model (luciferase imaging). Format: in vivo, mouse. The settings on record: NOD/SCID mice.
Source text: Finally, we examined a CAG myeloma xenograft model, which faithfully recapitulates the invasion of multiple myeloma to the bone marrow. We compared the efficacy of 2 to bortezomib, a proteasome inhibitor and standard treatment for multiple myeloma and lymphomas, and also explored the possibility of synergistic proteasomal and HPSE inhibitor treatment. In contrast to the single initial dose regimens used for B16 and 4T1, a continuous dosing regimen was used in this assay to gauge the efficacy of 2 over longer treatment periods. Following injection of luciferase expressing CAG cells, mice were treated with a course of 2 (300 nmol/day i.p.), bortezomib (0.5 mg/kg twice weekly i.p.), or a combination of both compounds. […]
Mice were sacrificed after 14 days and the lungs were dissected, photographed and evaluated for the number of metastatic foci/lung. […]
as §1, §2

Consider `CC(=O)N[C@H]1[C@@H](O[C@H]2[C@H](O)[C@@H](O)[C@@H]3O[C@@H]3[C@@H]2C(=O)O)O[C@H](CO)[C@@H](O)[C@@H]1O` [compound 2], for which, in experiment [1], the “inhibition of intracellular HPSE pool (cell penetration)” value was “can also penetrate cells to inhibit the intracellular HPSE pool”. Moreover, the “lung metastases (bioluminescent flux)” value in experiment [2] is on record as “marked reduction in lung metastases”. In addition, the “metastatic burden (bioluminescent flux)” value in experiment [3] (2 300 nmol/day i.p., bortezomib 0.5 mg/kg twice weekly i.p., imaging over time) is reported as “moderate reduction in metastatic burden”. Moreover, the “antimetastatic efficacy at 33 d timepoint” value in experiment [3] (continuous dosing, 33 d) is given as “somewhat reduced efficacy following prolonged treatment”.
